Measured values published in ChEMBL document CHEMBL1201862, “PubChem BioAssay data set” (2004).
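Growth conditions: 96-well plates. Treatment: test compound, 48 hours, 5 concentrations. Analysis: linear interpolation between bracketing concentrations; unreached endpoints set to highest concentration. Here, GI50 denotes the concentration required for 50% inhibition of growth.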 The source made the active and inactive calls. Rule as the data show it: active = GI50 up to about 1.1 µM and inactive = higher.

Assays:
Assay in all cases: DTP human tumour cell line panel, 48 h
M19-MEL = tested on: M19-MEL
KM-20L2 = tested on: KM-20L2
LXFL 529 = tested on: LXFL 529
DLD-1 = tested on: DLD-1
XF498 = tested on: XF498
HOP-18 = tested on: HOP-18
DMS-273 = tested on: DMS-273
RXF 631 = tested on: RXF 631
SNB-78 = tested on: SNB-78

Structure (SMILES)	GI50 (M19-MEL)	GI50 (KM-20L2)	GI50 (LXFL 529)	GI50 (DLD-1)	GI50 (XF498)	GI50 (HOP-18)	GI50 (DMS-273)	GI50 (RXF 631)	GI50 (SNB-78)
CCOC(=O)NC(=O)c1cn(CC(=O)NCC(=O)NCC(=O)NCCCN2CCN(CCCNC(=O)CNC(=O)CNC(=O)Cn3cc(C(=O)NC(=O)OCC)c(=O)[nH]c3=O)CC2)c(=O)[nH]c1=O	> 100 µM (inactive)	> 100 µM (inactive)	> 100 µM (inactive)	> 100 µM (inactive)	> 100 µM (inactive)	> 100 µM (inactive)	> 100 µM (inactive)	> 100 µM (inactive)	> 100 µM (inactive)
COc1ccc(C(=C[N+](=O)[O-])c2ccc(OC)cc2)cc1		10.6 µM (inactive)	16.2 µM (inactive)	16.7 µM (inactive)		> 100 µM (inactive)	2.74 µM (inactive)	14 µM (inactive)	14.7 µM (inactive)
O=C(Nc1ccc(Sc2ccc(/N=N/c3c(O)c(S(=O)(=O)O)cc4cc(S(=O)(=O)O)ccc34)cc2)cc1)c1ccc(/N=N/c2c(O)ccc3c(S(=O)(=O)O)cc(S(=O)(=O)O)cc23)cc1	16.6 µM (inactive)	58.7 µM (inactive)	25.2 µM (inactive)	37.7 µM (inactive)	28.2 µM (inactive)	33 µM (inactive)	25.9 µM (inactive)	41.3 µM (inactive)	36.4 µM (inactive)
CCOC(=O)C1=C(Nc2ccccc2)SC/C1=N\NC(=O)Cc1ccccc1	> 100 µM (inactive)	> 100 µM (inactive)	> 100 µM (inactive)	> 100 µM (inactive)	> 100 µM (inactive)	> 100 µM (inactive)	> 100 µM (inactive)	> 100 µM (inactive)	> 100 µM (inactive)
Cc1cc2occ(C)c(=O)c2c2c1OC(C)(C)S2	> 100 µM (inactive)	> 100 µM (inactive)	> 100 µM (inactive)	> 100 µM (inactive)	> 100 µM (inactive)	> 100 µM (inactive)	> 100 µM (inactive)		
O=C1CCC2(O)c3ccccc3C2Cc2ccccc21 (centres undefined)	> 100 µM (inactive)	> 100 µM (inactive)		> 100 µM (inactive)	> 100 µM (inactive)	> 100 µM (inactive)	> 100 µM (inactive)		> 100 µM (inactive)
O=C(NC12CC3CC(CC(C3)C1)C2)C(=O)c1c[nH]c2ccccc12	18.7 µM (inactive)	5.94 µM (inactive)	13.4 µM (inactive)		13.1 µM (inactive)		14.8 µM (inactive)		18 µM (inactive)
CCOC(=O)CC(NC(=O)c1nc[nH]c1[N+](=O)[O-])C(=O)OCC (centres undefined)	82 µM (inactive)		41.5 µM (inactive)	39 µM (inactive)			40.6 µM (inactive)		
CCOC(=O)C1Cc2ccc3c4c(ccc(c24)C1)CC(C(=O)OCC)C3	> 100 µM (inactive)	> 100 µM (inactive)		> 100 µM (inactive)	> 100 µM (inactive)	> 100 µM (inactive)	> 100 µM (inactive)		> 100 µM (inactive)
CCCCCCCCCC[S+]([O-])CC(CO)NC(=O)/C=C/c1c(C)nc(O)nc1O (centres undefined)	0.475 µM (active)	0.695 µM (active)		0.476 µM (active)	0.0376 µM (active)	1.49 µM (inactive)	0.37 µM (active)		0.718 µM (active)
O=C1CCN2CCC(=O)c3c2c(cc2ccccc32)N1	> 100 µM (inactive)	> 100 µM (inactive)	> 100 µM (inactive)	> 100 µM (inactive)	26.8 µM (inactive)		> 100 µM (inactive)		> 100 µM (inactive)
COc1ccc(/C=C\c2cc(OC)c(OC)c(OC)c2)cc1OC(=O)NCCN(C)C	< 0.0001 µM (active)	0.136 µM (active)	< 0.0001 µM (active)	< 0.0001 µM (active)	< 0.0001 µM (active)	16.8 µM (inactive)	< 0.0001 µM (active)	0.000196 µM (active)	< 0.0001 µM (active)
CCOc1ccc(NCC2CC/C(=C\c3ccc(Cl)cc3)C2=O)cc1 (centres undefined)	> 42.4 µM (inactive)	> 38.3 µM (inactive)	13.1 µM (inactive)	10 µM (inactive)	19.3 µM (inactive)	22.1 µM (inactive)	> 39.8 µM (inactive)		98.9 µM (inactive)
COc1cc(NCc2ccc3nc(N)nc(N)c3c2C)cc(OC)c1OC	0.326 µM (active)	0.0347 µM (active)		0.0253 µM (active)	2.57 µM (inactive)	7.29 µM (inactive)	0.025 µM (active)		5.42 µM (inactive)
Cc1cn(C2CC(O)C(CO)O2)c(=O)[nH]c1=O (centres undefined)	1070 µM (inactive)	3360 µM (inactive)		2700 µM (inactive)	263 µM (inactive)	4610 µM (inactive)	3780 µM (inactive)		3180 µM (inactive)
COc1cc2c(cc1OC)C1(c3ccccc3)ON=C(c3ccccc3)N1CS2 (centres undefined)	> 100 µM (inactive)	> 100 µM (inactive)	> 100 µM (inactive)	> 100 µM (inactive)	> 100 µM (inactive)	> 100 µM (inactive)	> 100 µM (inactive)	> 100 µM (inactive)	> 100 µM (inactive)
COc1ccc2c(=O)c([Se]c3coc4cc(OC)ccc4c3=O)coc2c1	28.3 µM (inactive)	> 100 µM (inactive)	32.5 µM (inactive)	36.6 µM (inactive)	> 100 µM (inactive)	> 100 µM (inactive)	53.2 µM (inactive)		22.7 µM (inactive)
CCN(CC)CCC(=O)N1C/C(=C/c2ccccc2)C(=O)/C(=C\c2ccccc2)C1	1.39 µM (inactive)	1.71 µM (inactive)	1.56 µM (inactive)	1.29 µM (inactive)	2.63 µM (inactive)	2.8 µM (inactive)	1.42 µM (inactive)		
CCOC(=O)c1nc(-c2ccccc2)oc1OCC	> 100 µM (inactive)	> 100 µM (inactive)	> 100 µM (inactive)	> 100 µM (inactive)	21.2 µM (inactive)	> 100 µM (inactive)	90.2 µM (inactive)		> 100 µM (inactive)
CN/C(=N\C#N)N(Cc1ccccc1)Cc1ccccc1	> 100 µM (inactive)	> 100 µM (inactive)	> 100 µM (inactive)	> 100 µM (inactive)	> 100 µM (inactive)		> 100 µM (inactive)		> 100 µM (inactive)
N/N=C(/C(=O)Nc1cccc(Cl)c1)C(C(=O)c1ccc(O)cc1O)C1OC(=O)c2ccccc21 (centres undefined)	> 100 µM (inactive)	> 100 µM (inactive)	> 100 µM (inactive)				65.9 µM (inactive)		> 100 µM (inactive)
COc1ccc(CN(O)C2C(CO)OC(n3cc(I)c(=O)[nH]c3=O)C2O)cc1 (centres undefined)	> 100 µM (inactive)	> 100 µM (inactive)	> 100 µM (inactive)	> 100 µM (inactive)	> 100 µM (inactive)	> 100 µM (inactive)	> 100 µM (inactive)		> 100 µM (inactive)
COC(=O)C1CCC(C)CC1=O (centres undefined)	> 100 µM (inactive)		> 100 µM (inactive)	> 100 µM (inactive)	> 100 µM (inactive)		> 100 µM (inactive)	> 100 µM (inactive)	> 100 µM (inactive)
COc1cc2c3c(c1OC)-c1ccccc1C(C(OC(C)=O)c1ccccc1)C3N(C)CC2 (centres undefined)	28.8 µM (inactive)	27.1 µM (inactive)	19.7 µM (inactive)	5.97 µM (inactive)		> 100 µM (inactive)	19.3 µM (inactive)		32.7 µM (inactive)
CCOC(=O)[C@H]1Nc2ccc([N+](=O)[O-])cc2C2c3ccccc3CC21 (some centres undefined)	20.8 µM (inactive)	20.6 µM (inactive)	5.79 µM (inactive)	25.4 µM (inactive)	30 µM (inactive)		12.6 µM (inactive)		42.1 µM (inactive)
COC1=CC(=O)c2c(O)c3c(c(O)c2C1=O)C=C(C)OC3O (centres undefined)	0.224 µM (active)	0.365 µM (active)	1.36 µM (inactive)	0.665 µM (active)	1.84 µM (inactive)		1.01 µM (active)		1.73 µM (inactive)
CCCCCCCCCCCCC(CC)CCCCC(=O)O (centres undefined)	> 100 µM (inactive)	> 100 µM (inactive)	> 100 µM (inactive)	> 100 µM (inactive)	> 100 µM (inactive)	> 100 µM (inactive)	> 100 µM (inactive)	> 100 µM (inactive)	> 100 µM (inactive)
